From patent publication US20170057955A1, “Pyridopyrimidinone Compounds for Modulating the Catalytic Activity of Histone Lysine Demethylases (KDMs)” (Dong-A Socio Holdings Co., Ltd., priority 2015, published 2017)

Molecular target: T1, Recombinant human JARID1B/KDM5B (Homo sapiens, UniProt Q9UGL1)
T1 construct: purchased Active Motif 31432; host or cells: Sf9 insect cells
Experiment: LANCE Ultra TR-FRET JARID1B (KDM5B) demethylase inhibition assay
Assay type: biochemical
Settings: 0.1 uM of test-compounds, FLAG-JARID1B, 500 nM biotinylated H3K4me3 peptide substrate, 30 min at room temperature
Text: FLAG-tagged JARID1B (also known as KDM5B) protein was screened against 49 compounds. For this compound screening, LANCE Ultra time-resolved fluorescence resonance energy transfer (TR-FRET) assay was employed using a europoium (Eu)-labeled antibody that can specifically recognize mono- or dimethylated peptides (H3K4me2/1) and ULight-streptavidin (ULight-SA), a small molecule fluorescent dye. When irradiated at 340 nm, the energy from the Eu donor is transferred to the ULight acceptor dye which, in turn, emits light primarily at 665 nm. The ratio between the intensity of primary emission at 665 nm and that of secondary emission at […] was used to quantify the level of lysine methylation. As JARID1B removes more methyl moieties from tri-methylated substrate peptides (H3K4me3), the ratio increases until the enzyme reaction is terminated. In case, therefore, the compounds disrupt the enzymatic activity completely, the ratio becomes equal to a background value.
Recombinant human JARID1B/KDM5B (accession number NP_006609) of molecular weight 179.9 KDa was expressed in Sf9 insect cells and contains an N-terminal FLAG tag. The enzyme was obtained from Active Motif (Catalog No. 31432). The tri-methylated histone substrate peptide of purity greater than 95% was a synthetic peptide in which the first 21 amino acids correspond to the human histone H3 sequence with three extra amino acids and a biotin motif (GGK-biotin) linked to the C-terminus [sequence: ART-K(Me3)-QTARKSTGGKAPRKQLA-GGK-biotin-OH], (AnaSpec, Fremont, Calif. Catalog. No. ANA-1413). The reference inhibitor compound tranylcypromine (or trans-2-phenylcyclopropylamine hydrochloride, also known as, 2-PCPA) was purchased from Sigma (St. Louis, Mo. Cat. no. P8511). ULight-labeled streptavidin (ULight-SA, Catalog no. TRF0102), Eu-W1024-labeled anti-methyl-Histone H3 Lysine 4 (H3K4me1-2) Antibody (Catalog no. TRF0402), and LANCE detection buffer 10× (Catalog no. CR97-100) were obtained from PerkinElmer (Montreal, Quebec, Canada). The TR-FRET experiments were carried out in white, low-volume 384-wellplates purchased from PerkinElmer (ProxiPlate_-384 Plus, Catalog no. 6008280).
The TR-FRET signal was measured in the presence both of the bio-H3K4me3 peptide and FLAG-JARID1B by detecting any H3K4me2/1 peptide produced in the assay system. Assays using only the bio-H3K4me2 peptide were served as a positive control. Robust enzymatic progressions were observed by using JARID1B at concentrations ranging from 10 to 30 nM. In a typical TR-FRET experiment, JARID1B was pre-incubated with or without 0.1 uM of test-compounds (containing 1% DMSO final) for 5 min. The enzymatic reactions were initiated by the addition of 500 nM biotinylated H3K4me3 peptide substrate plus 500 uM of 2-OG 25 uM Fe(II) and 2 mM ascorbate. The reaction buffer also contained 50 mM Hepes (pH7.5), 0.01% (v/v) Tween 20, and 50 mM NaCl. The reaction mixture was incubated for 30 min at room temperature before reading on an EnVision plate reader (PerkinElmer, Waltham, Mass.).

T1 sequence (Q9UGL1 whole entry): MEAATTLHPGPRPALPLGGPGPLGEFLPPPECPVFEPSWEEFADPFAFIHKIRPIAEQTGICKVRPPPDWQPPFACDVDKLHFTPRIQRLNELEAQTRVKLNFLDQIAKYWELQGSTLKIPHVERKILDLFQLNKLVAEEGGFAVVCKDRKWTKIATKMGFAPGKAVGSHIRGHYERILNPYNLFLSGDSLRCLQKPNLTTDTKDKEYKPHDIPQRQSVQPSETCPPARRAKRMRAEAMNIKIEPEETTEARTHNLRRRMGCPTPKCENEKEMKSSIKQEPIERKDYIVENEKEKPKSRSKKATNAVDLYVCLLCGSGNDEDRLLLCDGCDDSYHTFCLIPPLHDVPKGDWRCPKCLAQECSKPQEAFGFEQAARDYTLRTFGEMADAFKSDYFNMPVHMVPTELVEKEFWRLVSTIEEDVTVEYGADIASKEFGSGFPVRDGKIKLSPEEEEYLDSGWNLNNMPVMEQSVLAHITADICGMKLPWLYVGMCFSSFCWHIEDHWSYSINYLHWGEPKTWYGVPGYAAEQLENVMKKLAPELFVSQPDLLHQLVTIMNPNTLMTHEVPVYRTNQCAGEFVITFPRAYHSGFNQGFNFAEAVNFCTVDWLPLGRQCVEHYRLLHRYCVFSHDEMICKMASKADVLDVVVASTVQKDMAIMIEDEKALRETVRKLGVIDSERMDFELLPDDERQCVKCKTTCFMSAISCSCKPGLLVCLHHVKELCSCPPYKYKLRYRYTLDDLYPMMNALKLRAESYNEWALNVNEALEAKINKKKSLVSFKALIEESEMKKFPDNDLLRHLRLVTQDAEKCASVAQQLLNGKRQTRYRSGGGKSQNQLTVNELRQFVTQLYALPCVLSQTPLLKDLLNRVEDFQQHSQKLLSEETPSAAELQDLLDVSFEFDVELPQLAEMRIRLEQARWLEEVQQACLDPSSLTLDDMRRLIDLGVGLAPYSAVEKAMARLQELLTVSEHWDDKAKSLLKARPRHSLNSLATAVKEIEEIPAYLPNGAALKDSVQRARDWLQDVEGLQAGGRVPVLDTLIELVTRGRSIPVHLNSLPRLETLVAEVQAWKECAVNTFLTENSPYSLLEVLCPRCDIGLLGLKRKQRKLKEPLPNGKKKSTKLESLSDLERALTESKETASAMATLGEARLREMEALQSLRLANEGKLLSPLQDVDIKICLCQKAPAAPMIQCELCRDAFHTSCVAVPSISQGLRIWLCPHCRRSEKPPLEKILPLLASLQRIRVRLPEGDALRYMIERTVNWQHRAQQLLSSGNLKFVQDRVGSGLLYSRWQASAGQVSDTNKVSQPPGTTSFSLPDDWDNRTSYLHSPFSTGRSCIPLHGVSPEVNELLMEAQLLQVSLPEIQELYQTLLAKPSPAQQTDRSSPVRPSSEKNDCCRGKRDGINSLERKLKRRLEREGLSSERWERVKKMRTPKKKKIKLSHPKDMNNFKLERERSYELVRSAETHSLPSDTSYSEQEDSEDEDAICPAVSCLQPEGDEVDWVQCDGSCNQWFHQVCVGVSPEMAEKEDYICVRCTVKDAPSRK

Row | Structure (SMILES) | inhibition at 0.1 µM
1 | C[C@H](O)CNc1nc(-c2nccc3c(=O)[nH]c(-c4cc5ccccc5o4)nc23)cs1 [Compound 168, (S)-2-(benzofuran-2-yl)-8-(2-((2-hydroxypropyl)amino)thiazol-4-yl)pyrido[3,4-d]pyrimidin-4(3H)-one] | < 20%
2 | CC(C)c1nc2c(-c3csc(NCCO)n3)nccc2c(=O)[nH]1 [Compound 138, 8-(2-((2-hydroxyethyl)amino)thiazol-4-yl)-2-isopropylpyrido[3,4-d]pyrimidin-4(3H)-one] | < 20%
3 | O=c1[nH]cnc2c(-c3csc(NCCO)n3)nccc12 [Compound 38, 8-(2-((2-hydroxyethyl)amino)thiazol-4-yl)pyrido[3,4-d]pyrimidin-4(3H)-one] | ≥ 50%
4 | O=c1[nH]c(COc2ccc(F)c(Cl)c2)nc2c(-c3csc(NC4CCNCC4)n3)nccc12 [Compound 93, 2-((3-chloro-4-fluorophenoxy)methyl)-8-(2-(piperidin-4-ylamino)thiazol-4-yl)pyrido[3,4-d]pyrimidin-4(3H)-one] | ≥ 50%
5 | O=c1[nH]c(COc2ccc(F)c(Cl)c2)nc2c(-c3csc(NCCCc4ccccc4Cl)n3)nccc12 [Compound 109, 2-((3-chloro-4-fluorophenoxy)methyl)-8-(2-((3-(2-chlorophenyl)propyl)amino)thiazol-4-yl)pyrido[3,4-d]pyrimidin-4(3H)-one] | < 20%
6 | O=c1[nH]c(COc2cc(F)cc(F)c2)nc2c(-c3csc(NCCO)n3)nccc12 [Compound 129, 2-((3,5-difluorophenoxy)methyl)-8-(2-((2-hydroxyethyl)amino)thiazol-4-yl)pyrido[3,4-d]pyrimidin-4(3H)-one] | < 20%
7 | O=c1[nH]c(COc2ccccc2Cl)nc2c(-c3csc(NCCO)n3)nccc12 [Compound 132, 2-((2-chlorophenoxy)methyl)-8-(2-((2-hydroxyethyl)amino)thiazol-4-yl)pyrido[3,4-d]pyrimidin-4(3H)-one] | 20 to 50%
8 | CCN(CC)CCCC(C)Nc1nc(-c2nccc3c(=O)[nH]c(COc4ccc(F)c(Cl)c4)nc23)cs1 (stereo not shown) [Compound 118, 2-((3-chloro-4-fluorophenoxy)methyl)-8-(2-((5-(diethylamino)pentan-2-yl)amino)thiazol-4-yl)pyrido[3,4-d]pyrimidin-4(3H)-one] | 20 to 50%
9 | CN1CCC(Nc2nc(-c3nccc4c(=O)[nH]c(COc5ccc(F)cc5)nc34)cs2)CC1 [Compound 127, 2-((4-fluorophenoxy)methyl)-8-(2-((1-methylpiperidin-4-yl)amino)thiazol-4-yl)pyrido[3,4-d]pyrimidin-4(3H)-one] | ≥ 50%
10 | CC(=O)Nc1ccc(-c2cn(-c3nccc4c(=O)[nH]cnc34)nc2N)cc1 [Compound 18, N-(4-(3-amino-1-(4-oxo-3,4-dihydropyrido[3,4-d]pyrimidin-8-yl)-1H-pyrazol-4-yl)phenyl)acetamide] | 20 to 50%
11 | O=c1[nH]c(COc2ccc(F)c(Cl)c2)nc2c(-c3ccccn3)nccc12 [Compound 80, 2-((3-chloro-4-fluorophenoxy)methyl)-8-(pyridin-2-yl)pyrido[3,4-d]pyrimidin-4(3H)-one] | 20 to 50%
12 | CN1CCC(CNc2nc(-c3nccc4c(=O)[nH]cnc34)cs2)C1 (stereo not shown) [Compound 59, 8-(2-(((1-methylpyrrolidin-3-yl)methyl)amino)thiazol-4-yl)pyrido[3,4-d]pyrimidin-4(3H)-one] | 20 to 50%
13 | Nc1nc(-c2nccc3c(=O)[nH]c(CCc4ccc(F)cc4)nc23)cs1 [Compound 165, 8-(2-aminothiazol-4-yl)-2-(4-fluorophenethyl)pyrido[3,4-d]pyrimidin-4(3H)-one] | 20 to 50%
14 | O=c1[nH]c(COc2ccc(F)c(Cl)c2)nc2c(-c3csc(NCC(O)CN4CCNCC4)n3)nccc12 (stereo not shown) [Compound 113, 2-((3-chloro-4-fluorophenoxy)methyl)-8-(2-((2-hydroxy-3-(piperazin-1-yl)propyl)amino)thiazol-4-yl)pyrido[3,4-d]pyrimidin-4(3H)-one] | ≥ 50%
15 | CCC[C@H](CO)Nc1nc(-c2nccc3c(=O)[nH]c(COc4ccc(F)c(Cl)c4)nc23)cs1 [Compound 121, (R)-2-((3-chloro-4-fluorophenoxy)methyl)-8-(2-((1-hydroxypentan-2-yl)amino)thiazol-4-yl)pyrido[3,4-d]pyrimidin-4(3H)-one] | 20 to 50%
16 | CN(C)CCCNc1nc(-c2nccc3c(=O)[nH]cnc23)cs1 [Compound 47, 8-(2-((3-(dimethylamino)propyl)amino)thiazol-4-yl)pyrido[3,4-d]pyrimidin-4(3H)-one] | 20 to 50%
17 | CC(C)(c1ccccc1)c1ccc(OCc2nc3c(-c4csc(NCCO)n4)nccc3c(=O)[nH]2)cc1 [Compound 158, 8-(2-((2-hydroxyethyl)amino)thiazol-4-yl)-2-((4-(2-phenylpropan-2-yl)phenoxy)methyl)pyrido [3,4-d]pyrimidin-4(3H)-one] | < 20%
18 | CN(C)CCNc1nc(-c2nccc3c(=O)[nH]c(COc4cc(F)cc(F)c4)nc23)cs1 [Compound 130, 2-((3,5-difluorophenoxy)methyl)-8-(2-((2-(dimethylamino)ethyl)amino)thiazol-4-yl)pyrido[3,4-d]pyrimidin-4(3H)-one] | ≥ 50%
19 | Nc1nc(-c2nccc3c(=O)[nH]c(COc4ccc(F)c(Cl)c4)nc23)cs1 [Compound 104, 8-(2-aminothiazol-4-yl)-2-((3-chloro-4-fluorophenoxy)methyl) pyrido[3,4-d]pyrimidin-4(3H)-one] | 20 to 50%

Now from value to compound:

Row | inhibition at 0.1 µM | Structure (SMILES)
20 | < 20% | O=c1[nH]c(COc2ccc(F)c(Cl)c2)nc2c(-c3cccc(Cl)n3)nccc12 [Compound 114, 2-((3-chloro-4-fluorophenoxy)methyl)-8-(6-chloropyridin-2-yl)pyrido[3,4-d]pyrimidin-4(3H)-one]
21 | < 20% | Nc1ncc(-c2nccc3c(=O)[nH]c(COc4ccc(F)c(Cl)c4)nc23)s1 [Compound 75, 8-(2-aminothiazol-5-yl)-2-((3-chloro-4-fluorophenoxy)methyl) pyrido[3,4-d]pyrimidin-4(3H)-one]
22 | 20 to 50% | O=c1[nH]cnc2c(-c3csc(NCCCO)n3)nccc12 [Compound 46, 8-(2-((3-hydroxypropyl)amino)thiazol-4-yl)pyrido[3,4-d]pyrimidin-4(3H)-one]
23 | < 20% | O=c1[nH]c(COc2ccc(F)c(Cl)c2)nc2c(-c3cc[nH]n3)nccc12 [Compound 76, 2-((3-chloro-4-fluorophenoxy)methyl)-8-(1H-pyrazol-3-yl)pyrido[3,4-d]pyrimidin-4(3H)-one]
24 | < 20% | CN1CCN(Cc2cccc(-c3cn(-c4nccc5c(=O)[nH]cnc45)nc3N)c2)CC1 [Compound 37, 8-(3-amino-4-(3-((4-methylpiperazin-1-yl)methyl)phenyl)-1H-pyrazol-1-yl)pyrido[3,4-d]pyrimidin-4(3H)-one]
25 | 20 to 50% | O=c1[nH]c(-c2cc3ccccc3o2)nc2c(-c3csc(NCCO)n3)nccc12 [Compound 167, 2-(benzofuran-2-yl)-8-(2-((2-hydroxyethyl)amino)thiazol-4-yl)pyrido[3,4-d]pyrimidin-4(3H)-one]
26 | 20 to 50% | O=c1[nH]c(COc2ccc(F)c(Cl)c2)nc2c(-c3cscn3)nccc12 [Compound 106, 2-((3-chloro-4-fluorophenoxy)methyl)-8-(thiazol-4-yl)pyrido[3,4-d]pyrimidin-4(3H)-one]
27 | 20 to 50% | O=c1[nH]c(COc2ccc(F)c(Cl)c2)nc2c(-c3csc(NCCCCN4CCCC4)n3)nccc12 [Compound 119, 2-((3-chloro-4-fluorophenoxy)methyl)-8-(2-((4-(pyrrolidin-1-yl)butyl)amino)thiazol-4-yl)pyrido[3,4-d]pyrimidin-4(3H)-one]
28 | < 20% | CN(C)CCCNc1nc(-c2nccc3c(=O)[nH]c(COCc4ccccc4)nc23)cs1 [Compound 150, 2-((benzyloxy)methyl)-8-(2-((3-(dimethylamino)propyl)amino)thiazol-4-yl)pyrido[3,4-d]pyrimidin-4(3H)-one]
